Non-standard residues stand in square brackets, D forms with d. Residues, ends and D or L forms follow the SMILES beside them.
Experiments:
[1] = system: anti-HA mAb clone 12ca5; experiment: Competition fluorescence polarization of HA epitope and analogues; type: binding; conditions: for IC50: competition FP, 100 nM 12ca5, 28 nM YPYDVPDYAK(FITC)-CONH2, 1 mg/mL BSA, 0.02% Tween 20, 1x PBS, RT, read after 1 h; for Kd: from competition FP, 100 nM 12ca5, 28 nM FITC tracer
Protocol: Competition fluorescence polarization of HA epitope and analogues:
Solutions of unlabeled peptides (~1 mg/mL each; Supplementary Table 1) in 1x PBS was prepared in the presence of 100 nM 12ca5, 1 mg/mL BSA, 0.02% Tween 20 (120 μL). Fluorescent competitor was added (YPYDVPDYAK(FITC)α-CONH2; 28 nM).
The resulting solution was diluted serially (20 μL) into 100 nM 12ca5, 28 nM […]
YPYDVPDYAK(FITC)α-CONH2, 1 mg/mL BSA, 0.02% Tween 20 in 1x PBS (80 μL; […]
5-fold dilutions). The resulting solutions were transferred to a 96 well plate (Greiner Bio- […]
(RT), and read after 1 h on a Tecan Infinite M1000 plate reader (470 nm excitation; 517 nm detection; 5 nm bandwidth). The concentration of fluorescent […] was determined based on absorbance at 490 nm, using ε = 76,900 M-1cm-1.
Competition fluorescence polarization of HA epitope Ala scan mutants:
Competition fluorescence polarization experiments were carried out as described in Competition fluorescence polarization of HA epitope and analogues.

[2] = system: 12ca5; experiment: Affinity selection from 10^8-member library against 12ca5 with exogenous competitor; conditions: 10 pM/member, 0.13 nmol 12ca5
[3] = system: 12ca5; experiment: Magnetic bead affinity capture of 12ca5-binding peptides, recovery by nLC-MS; parameters: species or system mouse
Protocol: Identification of binders from high-diversity libraries would necessitate their efficient recovery at high dilution. To assess the utility of magnetic bead-based affinity capture for this purpose, we investigated the recovery of a number of peptide binders with varying affinity for anti-HA mAb clone 12ca5 (12ca5), which recognizes the linear motif DXXDYA (Supplementary Figs. 1–6; Supplementary Table 1). In these experiments, streptavidin-coated magnetic beads (1 mg; 0.13 nmol IgG binding capacity) functionalized with biotinylated 12ca5 were incubated with mixtures of 12ca5-binding peptides (either 1 nM/peptide, 100 pM/peptide, or 10 pM/peptide; 1 mL scale). The magnetic beads were isolated, washed with buffer, and treated with chemical denaturant to elute bound peptides. A portion of this eluate (~2%) was subjected to nLC-MS analysis, and recovery was quantified using normalized MS response. To calculate recovery, a separate dose-response curve was generated for each peptide, since their MS responses varied by ~5-fold (Supplementary Fig. 7). […]

| SMILES | IC50 [1] [nM] | Kd [1] [nM] | competitor concentration required to attenuate the recovery of DXXDY(A/S) peptides [2] [µM] | recovery ([3]; 1 mg 12ca5-functionalized beads, 1 mL, 1 nM to 10 pM/peptide, 1 h 4 °C, 3 PBS washes (~6 min), normalized MS response) [%] | recovery expected based on measured dissociation rate ([3]; based on koff = 3.0 × 10^−3 s^−1 and total wash time of ~6 min) [%] |
| --- | --- | --- | --- | --- | --- |
| NCC(=O)N[C@H](Cc1ccc(O)cc1)C(=O)N1CCC[C@@H]1C(=O)N[C@H](Cc1ccc(O)cc1)C(=O)N[C@H](CCC(=O)O)C(=O)N[C@H](Cc1ccc(O)cc1)C(=O)N[C@H](CC(=O)O)C(=O)N[C@H](Cc1c[nH]c2ccccc12)C(=O)N[C@H](CCC(=O)O)C(N)=O [Gypyeydwe, reference compound] (H-G[dY][dP][dY][dE][dY][dD][dW][dE]-NH2) | 62000 ± 8000 | 3000 | 100 | – | – |
| C[C@H](NC(=O)[C@H](Cc1ccc(O)cc1)NC(=O)[C@H](CC(=O)O)NC(=O)[C@H](CCC(=O)O)NC(=O)[C@H](Cc1ccc(O)cc1)NC(=O)[C@H](CC(=O)O)NC(=O)[C@@H](N)Cc1ccccc1)C(=O)N[C@@H](CCC(=O)O)C(=O)N[C@@H](Cc1c[nH]c2ccccc12)C(=O)N[C@@H](CCCCN)C(N)=O [FDYEDYAEWK] (H-FDYEDYAEWK-NH2) | 590 ± 190 | 25 ± 13 | – | 33 | 34 |

From PMC7311396, “Ultra-large chemical libraries for the discovery of high-affinity peptide binders” (Nature Communications, 2020)
